Assay results from patent US10689331B2, “IDO inhibitors” (Bristol-Myers Squibb Company, priority 2015, dated 2020).

Target: T1, human IDO1 (Homo sapiens, UniProt P14902)
T1 construct: expressed in transfected cells
Assay: HEK Human IDO-1 inhibition assay (kynurenine readout, Ehrlich reagent, absorbance 490 nm)
Format: cell-based
Details: human IDO1/HEK293 cells, incubated 20 hours with compound; 500 nM reference standard = 100% inhibition
How it was run: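 HEK293 cells stably expressing human IDO1, treated with compound for 20 h at 37 °C in phenol red-free RPMI/10% FBS. Kynurenine detected after TCA (0.2% final, 50 °C, 30 min) by Ehrlich reagent absorbance at 490 nm; IC50 normalised to 500 nM reference standard (100%) and DMSO (0%).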

T1 sequence (P14902 whole entry): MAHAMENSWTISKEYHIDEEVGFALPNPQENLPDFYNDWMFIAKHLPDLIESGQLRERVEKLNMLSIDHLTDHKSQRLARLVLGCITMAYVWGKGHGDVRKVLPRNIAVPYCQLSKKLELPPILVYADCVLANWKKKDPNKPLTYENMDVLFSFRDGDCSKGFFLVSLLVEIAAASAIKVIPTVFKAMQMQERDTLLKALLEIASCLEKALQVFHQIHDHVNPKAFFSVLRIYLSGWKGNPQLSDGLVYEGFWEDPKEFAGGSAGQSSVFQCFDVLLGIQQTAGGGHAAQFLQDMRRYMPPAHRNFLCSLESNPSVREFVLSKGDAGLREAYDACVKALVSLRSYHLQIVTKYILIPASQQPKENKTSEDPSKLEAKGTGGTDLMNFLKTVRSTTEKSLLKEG

| IC50 [nM] | SMILES |
| --- | --- |
| ≥ 100 | CC(C)CN(c1ccc(OCC(=O)O)cc1NC(=O)Cc1ccc(F)cc1)C1CCCCC1 [Example 57, 2-(4-(cyclohexyl(isobutyl)amino)-3-(2-(4-fluorophenyl)acetamido)phenoxy)acetic acid] |
| < 100 | COCCN(c1ccc(OCC(=O)O)cc1NC(=O)Nc1ccc(Cl)cc1F)C1CCCCC1 [Example 116, 2-(3-(3-(4-chloro-2-fluorophenyl)ureido)-4-(cyclohexyl(2-methoxyethyl)amino)phenoxy)acetic acid] |
| < 5 | CC(C)CN(c1ncc(OCC(=O)O)cc1NC(=O)Nc1ccc(Cl)cc1F)C1CCCCC1 [Example 102, 2-((5-(3-(4-chloro-2-fluorophenyl)ureido)-6-(cyclohexyl(isobutyl)amino)pyridin-3-yl)oxy)acetic acid] |
| ≥ 100 | Cc1ccc(NC(=O)Nc2cc(OCC(=O)O)ccc2N(CC(C)C)CC(C)C)cc1 [Example 112, 2-(4-(diisobutylamino)-3-(3-(p-tolyl)ureido)phenoxy)acetic acid] |
